This assay concerns the target human PDHK2 (hPDHK2) (Homo sapiens (Human), UniProt Q15119). Kind of assay: Inhibitory action of PDHK activity in vitro (kinase reaction, residual PDH activity measured). Type of assay: biochemical.
The mark [1] stands for this setting: PDHK inhibitory activity (class symbol).
[2] abbreviates: read-out: PDHK inhibitory activity IC50.
Setting [3] is: PDHK inhibitory activity, class symbol of IC50.

Like-named read-outs stand apart in the source and are kept apart here.

This is an account of results in patent publication US8871934B2, “Fluorene compound and pharmaceutical use thereof” (Japan Tobacco Inc., priority 2008, dated 2014).

For the compound `CCn1cc(-c2cc(CO)c3c(c2)C(O)(C(F)(F)F)c2ccccc2-3)cn1` (single isomer, unassigned) [compound 629, 4-hydroxymethyl-2-(1-ethyl-1H-pyrazol-4-yl)-9-trifluoromethyl-9H-fluoren-9-ol], the IC50 was < 100 nM under setting [1] and 45 nM under setting [2].
For the compound `OC1(C(F)(F)F)c2ccccc2-c2ccc(OCC3CCC3)cc21` (stereo not drawn) [compound 255], the IC50 under setting [3] was > 1000 nM and the IC50 under setting [2] amounted to 1080 nM.
As for `CC(C)(O)C(C)(C)n1cc(-c2cc(F)cc3c2-c2ccccc2C3(O)C(F)(F)F)cn1` (single isomer, unassigned) [compound 687], the IC50 under setting [1] was < 100 nM and the IC50 under setting [2] was 51 nM.
As to `CC(=O)N(C)C1CCN(C(=O)c2ccc3c(c2)C(O)(C(F)(F)F)c2ccccc2-3)C1` (stereo not drawn) [compound 246], the IC50 under setting [3] lay within 100 to 1000 nM and the IC50 under setting [2] was 809 nM.
Consider `OCC(CO)(CO)n1cc(-c2cc(F)cc3c2-c2ccccc2C3(O)C(F)(F)F)cn1` (single isomer, unassigned; (+)) [compound 703, (+)-2-[4-(2-fluoro-9-hydroxy-9-trifluoromethyl-9H-fluoren-4-yl)-pyrazol-1-yl]-2-hydroxymethyl-propane-1,3-diol], for which the IC50 was < 100 nM under setting [1] and 20 nM under setting [2].
In the case of `COc1cc(-c2cnn(C)c2)c2c(c1)C(O)(C(F)(F)F)c1ccccc1-2` (stereo not drawn) [compound 463], the IC50 reads like this: under setting [3], < 100 nM; under setting [2], 47 nM.
Consider `CNC(=O)CCCOc1ccc2c(c1)C(O)(C(F)(F)F)c1ccccc1-2` (stereo not drawn) [compound 281], for which the IC50 is > 1000 nM under setting [3] and 1000 nM under setting [2].
On the same counts, the results for `CCCN(C)C(=O)c1ccc2c(c1)C(O)(C(F)(F)F)c1ccccc1-2` (stereo not drawn) [compound 307] are > 1000 nM and 3200 nM.
Regarding `OCCn1cc(-c2cc(CO)cc3c2-c2ccccc2C3(O)C(F)(F)F)cn1` (stereo not drawn) [compound 620], the IC50 is, setting by setting: under setting [1], < 100 nM; under setting [2], 65 nM.
On to `OCCCOc1ccc2c(c1)C(O)(C(F)(F)F)c1ccccc1-2` (stereo not drawn) [compound 284], for which the IC50 is, setting by setting: under setting [3], > 1000 nM; under setting [2], 1170 nM.
In the case of `Cc1cc(-c2cnn(CC(=O)O)c2)c2c(c1)[C@@](O)(C(F)(F)F)c1ccccc1-2` (stereo in doubt) [compound 550], the IC50 (PDHK inhibitory activity IC50 (μmol/L)) is 69 nM and the IC50 under setting [3] is < 100 nM.
`CCN(CC)C(=O)C1CN(C(=O)c2ccc3c(c2)C(O)(C(F)(F)F)c2ccccc2-3)C1` (stereo not drawn) [compound 200]: the IC50 is, setting by setting: under setting [3], 100 to 1000 nM; under setting [2], 236 nM.
Taken in the same sequence, the figures for `OC1(C(F)(F)F)c2ccccc2-c2c(Cl)cc(-c3ccccc3)cc21` (stereo not drawn) [compound 159] were 100 to 1000 nM and 318 nM.
Taken in the same sequence, the figures for `Cn1cc(-c2cc(C(N)=O)c3c(c2)C(O)(C(F)(F)F)c2ccccc2-3)cn1` (stereo not drawn) [compound 518] were < 100 nM and 54 nM.
On the same counts, the results for `CC(C)OC(=O)N1CCN(c2ccc3c(c2)C(O)(C(F)(F)F)c2ccccc2-3)CC1` (stereo not drawn) [compound 212] are 100 to 1000 nM and 685 nM.
In the case of `CC(=O)N(C)C[C@H](O)COc1cc(-c2cnn(C)c2)c2c(c1)C(O)(C(F)(F)F)c1ccccc1-2` (stereo partly drawn) [compound 500], the IC50 by setting is: under setting [3], < 100 nM; under setting [2], 31 nM.
Taken in the same sequence, the figures for `COC(=O)COc1ccc2c(c1)C(O)(C(F)(F)F)c1ccccc1-2` (stereo not drawn) [compound 357] were > 1000 nM and 1940 nM.
Regarding `C#Cc1cc(C(N)=O)c2c(c1)C(O)(C(F)(F)F)c1ccccc1-2` (stereo not drawn) [compound 632], the IC50 is 100 to 1000 nM under setting [1] and 195 nM under setting [2].
As to `O=C(c1cc(Cl)c2c(c1)C(O)(C(F)(F)F)c1ccccc1-2)N1CCC1` (stereo not drawn) [compound 94], the IC50 by setting is: under setting [3], < 100 nM; under setting [2], 49 nM.
Taken in the same sequence, the figures for `O=C(O)CCn1cc(-c2cnc3c(c2)C(O)(C(F)(F)F)c2ccccc2-3)cn1` (stereo not drawn) [compound 568] were < 100 nM and 83 nM.
Regarding `CN(CCCO)C(=O)c1ccc2c(c1)C(O)(C(F)(F)F)c1ccccc1-2` (stereo not drawn) [compound 327], the IC50 is > 1000 nM under setting [3] and 2940 nM under setting [2].
Turning to `O=C(O)Cn1cc(-c2ccc3c(c2)C(O)(C(F)(F)F)c2cccc(CO)c2-3)cn1` (stereo not drawn) [compound 608], the IC50 is, setting by setting: (read-out: PDHK inhibitory activity (class symbol)) > 1000 nM; under setting [2], > 1000 nM.
As to `OC1(C(F)(F)F)c2ccccc2-c2ccc(OCc3ccccc3)cc21` (stereo not drawn) [compound 262], the IC50 runs as follows: under setting [3], > 1000 nM; under setting [2], 1360 nM.
Consider `CN(C)C(=O)c1ccccc1-c1ccc2c(c1)C(O)(C(F)(F)F)c1ccccc1-2` (stereo not drawn) [compound 184], for which the IC50 is > 1000 nM under setting [3] and > 10000 nM under setting [2].
Taken in the same sequence, the figures for `OC1(C(F)(F)F)c2ccccc2-c2ccc(-c3ccncc3)cc21` (stereo not drawn) [compound 103] were 100 to 1000 nM and 151 nM.
As for `CN(C)C(=O)c1ccc(-c2ccc3c(c2)C(O)(C(F)(F)F)c2ccccc2-3)cc1` (stereo not drawn) [compound 192], the IC50 runs as follows: under setting [3], 100 to 1000 nM; under setting [2], 182 nM.
On the same counts, the results for `O=C(O)CCn1cc(-c2cccc3c2-c2ccccc2C3(O)C(F)(F)F)cn1` (stereo not drawn) [compound 485] are 100 to 1000 nM and 117 nM.
With `CN(CCOc1cc(-c2cnn(C)c2)c2c(c1)C(O)(C(F)(F)F)c1ccccc1-2)C(=O)CO` (stereo not drawn) [compound 425], the IC50 is < 100 nM under setting [3] and 21 nM under setting [2].
Taken in the same sequence, the figures for `Cn1cc(-c2cc(OCC(=O)N3CCC3)cc3c2-c2ccccc2C3(O)C(F)(F)F)cn1` (stereo not drawn) [compound 441] were < 100 nM and 36 nM.
On to `NC(=O)c1cccc2c1-c1ccccc1C2(O)C(F)(F)F` (stereo not drawn) [compound 33], for which the IC50 runs as follows: under setting [3], > 1000 nM; under setting [2], 1810 nM.
For the compound `COC(=O)c1cccc2c1-c1ccccc1C2(O)C(F)(F)F` (stereo not drawn) [compound 27], the IC50 runs as follows: under setting [3], 100 to 1000 nM; under setting [2], 848 nM.
As to `CC(=O)c1cccc2c1-c1ccccc1C2(O)C(F)(F)F` (stereo not drawn) [compound 68], the IC50 reads like this: under setting [3], 100 to 1000 nM; under setting [2], 624 nM.
On the same counts, the results for `CC(C)n1cc(-c2cc(OCCCC(=O)O)cc3c2-c2ccccc2C3(O)C(F)(F)F)cn1` (single isomer, unassigned) [compound 553] are < 100 nM and 18 nM.
With `Nc1ccc(-c2ccc3c(c2)C(O)(C(F)(F)F)c2ccccc2-3)cc1` (stereo not drawn) [compound 193], the IC50 was 100 to 1000 nM under setting [3] and 560 nM under setting [2].
Taken in the same sequence, the figures for `CCCCCCOc1ccc2c(c1)C(O)(C(F)(F)F)c1ccccc1-2` (stereo not drawn) [compound 294] were 100 to 1000 nM and 710 nM.
On the same counts, the results for `Cc1ccc2c(c1)C(O)(C(F)(F)F)c1cccc(C)c1-2` (stereo not drawn) [compound 17] are > 1000 nM and 13900 nM.
Taken in the same sequence, the figures for `CC(=O)c1cc(OCCN2CCCC2=O)cc2c1-c1ccccc1C2(O)C(F)(F)F` (stereo not drawn) [compound 599] were < 100 nM and 33 nM.
As for `CC(=O)Nc1ccc(-c2ccc3c(c2)C(O)(C(F)(F)F)c2ccccc2-3)cc1` (stereo not drawn) [compound 197], the IC50 runs as follows: under setting [3], 100 to 1000 nM; under setting [2], 298 nM.
Taken in the same sequence, the figures for `Cn1cc(-c2cc(OCC(=O)N3CC(O)C3)cc3c2-c2ccccc2C3(O)C(F)(F)F)cn1` (single isomer, unassigned) [compound 475] were < 100 nM and 20 nM.
